“Also recorded” adds a separate entry of the source.
Test system: NL4-3 HIV-1
Assay: Modified time-of-addition assay
Format: cell-based
Conditions: 10 μM, MT-4 cells, RT activity 31 h post-infection
Method: There are indications that G4s in the HIV-1 promoter might play roles in both RNA and DNA forms. G4s present in the LTR region of HIV-1 genomic RNA could influence reverse transcription. By contrast, G4s in the promoter region of the integrated HIV-1 provirus might regulate the transcription of viral genome and of viral mRNAs and thus the expression of viral proteins and the production of new virions - both the later stages of the HIV-1 life cycle. A modified time-of-addition assay was performed with an emphasis on the later stages of the HIV-1 life cycle, such as reverse transcription, integration and provirus expression. The tested compounds were added at several time points, but the initial time point was 2 h post-infection to eliminate their virucidal/adsorption/entry effects. Several inhibitors of the individual steps of the HIV-1 life cycle were used as controls to resolve the post-entry steps of the HIV-1 life cycle. MT-4 cells were infected with NL4-3 HIV-1 and the infection was allowed to proceed for 1 h. Subsequently, the unbound virions were washed out, and the cells were resuspended in fresh media. The compounds were first added 2 h after the infection. The culture media were harvested 31 h later and the number of released virions was monitored through the activity of reverse transcriptase in the culture media (Fig. 4).
MT-4 cells were infected with NL4-3 HIV-1 at a MOI of 1. After 1 h, the cells were washed, seeded (100,000 cells/well) and incubated at 37 °C. […] HIV-1 production was determined 31 h post-infection by measuring RT activity in the supernatant.
(§1) RT assay. The reverse transcriptase (RT) activity in a cell-free supernatant was assessed by an α-32P RT assay. Briefly, the RT activity in the culture medium, which corresponded to the amount of HIV-1, was used to produce a DNA copy of an RNA template by extending a complementary oligo dT DNA primer with radiolabelled nucleotides. A reaction mixture containing 50 mM Tris-HCl pH 7.8, 75 mM KCl, 2 mM DTT, 5 mM MgCl2 and 0.5% NP-40 (all Sigma-Aldrich), 5 µg per ml of poly (rA)-poly (dT) (The Midlan Certified Reagent Company) with 1 µl 10-mCi/ml [α-32P]dTTP (American Radiolabeled Chemicals) per ml, and the tested sample was incubated at 37°C for two hours, after which 10 µl were spotted on DEAE blotting paper (PerkinElmer) and air-dried. After five washes with SSC buffer (0.15 M NaCl, 0.015 M sodium citrate) and three additional washes with 85% ethanol, the blotting paper was exposed to Phosphoscreen overnight, which was scanned on a Typhoon 9410 Phosphorimager instrument (GE Healthcare). The intensity of the dots was analysed by the ImageQuant software (GE Healthcare).

Row | Compound | latest time of administration post-infection with retained antiviral activity
1 | Cn1cc(/C=C/c2cc(/C=C/c3cn(C)c4ccccc34)[n+]3c(c2)-c2c(ccc4c2-c2cccc[n+]2CCC4)CCC3)c2ccccc21 [Compound 12] | up to 8 h
2 | C(=C\c1cc(/C=C/c2ccc3c(c2)CCO3)[n+]2c(c1)-c1c(ccc3c1-c1cccc[n+]1CCC3)CCC2)/c1ccc2c(c1)CCO2 [Compound 14] | up to 8 h
3 | COc1ccc2ccccc2c1/C=C/c1cc[n+]2c(c1)-c1c(c(C)c(C)c3c1-c1cc(/C=C/c4c(OC)ccc5ccccc45)cc[n+]1CC3)CC2 [Compound 15] | ≤ 5 h

Same assay, conditions: 10 μM, added 2-24 h post-infection, MT-4 cells, RT activity 31 h post-infection

Row | Compound | activity by time of addition
4 | Cn1cc(/C=C/c2cc(/C=C/c3cn(C)c4ccccc34)[n+]3c(c2)-c2c(ccc4c2-c2cccc[n+]2CCC4)CCC3)c2ccccc21 [Compound 12] | preserved their activity at later time points
5 | C(=C\c1cc(/C=C/c2ccc3c(c2)CCO3)[n+]2c(c1)-c1c(ccc3c1-c1cccc[n+]1CCC3)CCC2)/c1ccc2c(c1)CCO2 [Compound 14] | preserved their activity at later time points
6 | COc1ccc2ccccc2c1/C=C/c1cc[n+]2c(c1)-c1c(c(C)c(C)c3c1-c1cc(/C=C/c4c(OC)ccc5ccccc45)cc[n+]1CC3)CC2 [Compound 15] | mainly manifested when these compounds are administered before or early during reverse transcription

Test system: HIV-1
Assay: Adsorption assay (RT activity in supernatant)
Format: cell-based
Conditions: 10 µM, compound and virions added to MT-4 cells simultaneously, washed out after 2 h, RT activity 5 days after infection
Method: To address virion binding and entry in a competitive setting, we performed an adsorption assay where test compounds and virions were added to MT-4 cells simultaneously and were washed out after 2 h of incubation. In parallel, we performed a replication assay where MT-4 cells were infected with HIV-1 and the tested compounds were added 1 h later. In both cases, the infection was evaluated by measuring reverse transcriptase activity in a cell-free supernatant 5 days after the infection (Fig. 3). As controls, PBS (phosphate-buffered saline) and inhibitors of different HIV-1 life-cycle steps were used: AMD (AMD3100), an inhibitor of gp120 attachment to CXCR4 receptors of the target cell, thus preventing HIV-1 adsorption and entry; AZT (azidothymidine), an inhibitor of reverse transcriptase; and RAL (raltegravir), an integrase inhibitor.
MT-4 cells were seeded in 80 µl of the Roswell Park Memorial Institute (RPMI) medium in the amount of 2 × 10^5 cells per well of a 96-well plate, and 10 µl of the virus stock were immediately added with the final multiplicity of infection (MOI) of 0.05. For a replication assay, the infected cells were incubated at 37 °C for 1 h before the addition of compounds being tested (10 µM final concentration) and subsequently cultivated at 37 °C for another 5 days. For an adsorption test, by contrast, the compounds (10 µM final concentration) were added simultaneously with the virus, and after 2 h of incubation, the cells were washed three times with PBS to remove the compounds and unbound virions; after the addition of 100 µl of the RPMI medium, the cells were cultivated at 37 °C for 5 days. Five days post-infection, aliquots of virus-containing cell-free supernatants were harvested and analysed by reverse transcriptase (RT) assay (described in the Supplementary Information). The experiments were performed as biological replicates where the sample size for each condition was n = 3.
as §1

Row | Compound | effect on virus adsorption
7 | Cn1cc(/C=C/c2cc(/C=C/c3cn(C)c4ccccc34)[n+]3c(c2)-c2c(ccc4c2-c2cccc[n+]2CCC4)CCC3)c2ccccc21 [Compound 12] | minimal or no effect on virus adsorption
8 | C(=C\c1cc(/C=C/c2ccc3c(c2)CCO3)[n+]2c(c1)-c1c(ccc3c1-c1cccc[n+]1CCC3)CCC2)/c1ccc2c(c1)CCO2 [Compound 14] | minimal or no effect on virus adsorption
9 | COc1ccc2ccccc2c1/C=C/c1cc[n+]2c(c1)-c1c(c(C)c(C)c3c1-c1cc(/C=C/c4c(OC)ccc5ccccc45)cc[n+]1CC3)CC2 [Compound 15] | minimal or no effect on virus adsorption

Test system: HIV-1 LTR G-quadruplex template (G4 LTR Stop)
Assay: Taq polymerase stop assay
Format: biochemical
Conditions: 1 μM, normalized against control
Method: To address specifically the positions in the HIV-1 promoter region that are affected by the binding of G4-stabilizing agents, we performed a Taq polymerase stop assay. The wild-type LTR oligonucleotide was extended at the […] to include a primer-annealing region and used as a template for a single-cycle Taq polymerase reaction. The elongation of the radioactively labelled primer was performed at 45 °C in the presence or absence of the tested compounds and controls.
A Taq polymerase stop assay was carried out as described in a previous study. Briefly, the primer (G4 LTR primer, Supplementary Table S1) was 5′-end labelled with [γ-^32P]ATP using T4 polynucleotide kinase at 37 °C for 30 min. The T4 polynucleotide kinase was then inactivated by incubation at 65 °C for 5 min. The radioactively labelled primer was column-purified and stored at − 20 °C for further use. The labelled primer (1.7 pmol) was annealed to the template (2.1 pmol) in the LiCaco buffer and extended with the Go Taq DNA polymerase (2U/reaction, Promega) at 45 °C for 45 min. Samples were incubated with G-quadruplex-ligands at 45 °C for 45 min before DNA polymerase addition. The reactions were stopped by a denaturing solution (80% formamide, 10% glycerol, 0.025% xylen cyanol, 0.025% bromphenol blue and 10 mM EDTA pH 8); extension products were separated on 15% denaturing gel and visualized by phosphorimaging. The pixel intensity of bands was calculated using 1D gel analysis in ImageQuant TL software version 8.1 (GE HealthCare) after automatic background subtraction by Rolling Ball method.

Row | Compound | Fold change, all regions (A, B and C) together
10 | Cn1cc(/C=C/c2cc(/C=C/c3cn(C)c4ccccc34)[n+]3c(c2)-c2c(ccc4c2-c2cccc[n+]2CCC4)CCC3)c2ccccc21 [Compound 12] | 1.4
11 | C(=C\c1cc(/C=C/c2ccc3c(c2)CCO3)[n+]2c(c1)-c1c(ccc3c1-c1cccc[n+]1CCC3)CCC2)/c1ccc2c(c1)CCO2 [Compound 14] | 1.2
12 | COc1ccc2ccccc2c1/C=C/c1cc[n+]2c(c1)-c1c(c(C)c(C)c3c1-c1cc(/C=C/c4c(OC)ccc5ccccc45)cc[n+]1CC3)CC2 [Compound 15] | 1.6

Same assay, conditions: 2.5 μM, normalized against control

Row | Compound | Fold change, all regions (A, B and C) together
13 | Cn1cc(/C=C/c2cc(/C=C/c3cn(C)c4ccccc34)[n+]3c(c2)-c2c(ccc4c2-c2cccc[n+]2CCC4)CCC3)c2ccccc21 [Compound 12] | 1.9
14 | C(=C\c1cc(/C=C/c2ccc3c(c2)CCO3)[n+]2c(c1)-c1c(ccc3c1-c1cccc[n+]1CCC3)CCC2)/c1ccc2c(c1)CCO2 [Compound 14] | 1.7
15 | COc1ccc2ccccc2c1/C=C/c1cc[n+]2c(c1)-c1c(c(C)c(C)c3c1-c1cc(/C=C/c4c(OC)ccc5ccccc45)cc[n+]1CC3)CC2 [Compound 15] | 2.4

Same assay, conditions: 2.5 µM, pixel intensity normalized against negative control

Row | Compound | Fold change: A (G-patch 6′) | Fold change: B (G-patch 6) | Fold change: C (G-patch 5)
16 | Cn1cc(/C=C/c2cc(/C=C/c3cn(C)c4ccccc34)[n+]3c(c2)-c2c(ccc4c2-c2cccc[n+]2CCC4)CCC3)c2ccccc21 [Compound 12] | 1.9 | 2.1 | 1.5
17 | C(=C\c1cc(/C=C/c2ccc3c(c2)CCO3)[n+]2c(c1)-c1c(ccc3c1-c1cccc[n+]1CCC3)CCC2)/c1ccc2c(c1)CCO2 [Compound 14] | 1.4 | 2.0 | 1.5
18 | COc1ccc2ccccc2c1/C=C/c1cc[n+]2c(c1)-c1c(c(C)c(C)c3c1-c1cc(/C=C/c4c(OC)ccc5ccccc45)cc[n+]1CC3)CC2 [Compound 15] | 2.8 | 2.5 | 1.8

Same assay, conditions: 5 μM, normalized against control

Row | Compound | Fold change, all regions (A, B and C) together
19 | Cn1cc(/C=C/c2cc(/C=C/c3cn(C)c4ccccc34)[n+]3c(c2)-c2c(ccc4c2-c2cccc[n+]2CCC4)CCC3)c2ccccc21 [Compound 12] | 1.8
20 | C(=C\c1cc(/C=C/c2ccc3c(c2)CCO3)[n+]2c(c1)-c1c(ccc3c1-c1cccc[n+]1CCC3)CCC2)/c1ccc2c(c1)CCO2 [Compound 14] | 1.8
21 | COc1ccc2ccccc2c1/C=C/c1cc[n+]2c(c1)-c1c(c(C)c(C)c3c1-c1cc(/C=C/c4c(OC)ccc5ccccc45)cc[n+]1CC3)CC2 [Compound 15] | 2.5

Same assay, conditions: Taq polymerase pausing at G-patches, 1-5 μM

Row | Compound | G-quadruplex stabilization / stop band pattern
22 | Cn1cc(/C=C/c2cc(/C=C/c3cn(C)c4ccccc34)[n+]3c(c2)-c2c(ccc4c2-c2cccc[n+]2CCC4)CCC3)c2ccccc21 [Compound 12] | exhibit their stabilization effect even at 1 μM concentration; also recorded: stop bands only in G-patch 6
23 | C(=C\c1cc(/C=C/c2ccc3c(c2)CCO3)[n+]2c(c1)-c1c(ccc3c1-c1cccc[n+]1CCC3)CCC2)/c1ccc2c(c1)CCO2 [Compound 14] | stop bands only in G-patch 6
24 | COc1ccc2ccccc2c1/C=C/c1cc[n+]2c(c1)-c1c(c(C)c(C)c3c1-c1cc(/C=C/c4c(OC)ccc5ccccc45)cc[n+]1CC3)CC2 [Compound 15] | strong stop bands also in G-patch 6′; also recorded: exhibit their stabilization effect even at 1 μM concentration

Test system: G-quadruplexes in the HIV-1 LTR (G4 LTR FRET oligonucleotide)
Assay: FRET melting assay
Format: binding
Conditions: 2 μM compound, 0.2 μM oligonucleotide, 100 mM KCl; mean and standard error, three experiments

Row | Compound | Tm
25 | Cn1cc(/C=C/c2cc(/C=C/c3cn(C)c4ccccc34)[n+]3c(c2)-c2c(ccc4c2-c2cccc[n+]2CCC4)CCC3)c2ccccc21 [Compound 12] | 79 ± 0.2 °C
26 | C(=C\c1cc(/C=C/c2ccc3c(c2)CCO3)[n+]2c(c1)-c1c(ccc3c1-c1cccc[n+]1CCC3)CCC2)/c1ccc2c(c1)CCO2 [Compound 14] | 64 ± 0.2 °C
27 | COc1ccc2ccccc2c1/C=C/c1cc[n+]2c(c1)-c1c(c(C)c(C)c3c1-c1cc(/C=C/c4c(OC)ccc5ccccc45)cc[n+]1CC3)CC2 [Compound 15] | 70 ± 1.0 °C

Same assay, conditions: 2 μM compound, 0.2 μM oligonucleotide; average Tm minus average Tm of PBS

Row | Compound | ΔTm
28 | Cn1cc(/C=C/c2cc(/C=C/c3cn(C)c4ccccc34)[n+]3c(c2)-c2c(ccc4c2-c2cccc[n+]2CCC4)CCC3)c2ccccc21 [Compound 12] | 28 °C
29 | C(=C\c1cc(/C=C/c2ccc3c(c2)CCO3)[n+]2c(c1)-c1c(ccc3c1-c1cccc[n+]1CCC3)CCC2)/c1ccc2c(c1)CCO2 [Compound 14] | 13 °C
30 | COc1ccc2ccccc2c1/C=C/c1cc[n+]2c(c1)-c1c(c(C)c(C)c3c1-c1cc(/C=C/c4c(OC)ccc5ccccc45)cc[n+]1CC3)CC2 [Compound 15] | 19 °C

From PMC10102027, “Helquat dyes targeting G-quadruplexes as a new class of anti-HIV-1 inhibitors” (Scientific Reports, 2023)
